Measurements as given in PMC9851200, “Multiparameter phenotypic screening for endogenous TFEB and TFE3 translocation identifies novel chemical series modulating lysosome function” (Autophagy, 2022).

Key:
Type in all cases: binding
[1] = molecular target: T1, kinases (KINOMEscan panel) (Homo sapiens, UniProt Q9UF33); conditions: kinase EPHA6; NEW KINOMEscan
T1 sequence (Q9UF33 23-1036): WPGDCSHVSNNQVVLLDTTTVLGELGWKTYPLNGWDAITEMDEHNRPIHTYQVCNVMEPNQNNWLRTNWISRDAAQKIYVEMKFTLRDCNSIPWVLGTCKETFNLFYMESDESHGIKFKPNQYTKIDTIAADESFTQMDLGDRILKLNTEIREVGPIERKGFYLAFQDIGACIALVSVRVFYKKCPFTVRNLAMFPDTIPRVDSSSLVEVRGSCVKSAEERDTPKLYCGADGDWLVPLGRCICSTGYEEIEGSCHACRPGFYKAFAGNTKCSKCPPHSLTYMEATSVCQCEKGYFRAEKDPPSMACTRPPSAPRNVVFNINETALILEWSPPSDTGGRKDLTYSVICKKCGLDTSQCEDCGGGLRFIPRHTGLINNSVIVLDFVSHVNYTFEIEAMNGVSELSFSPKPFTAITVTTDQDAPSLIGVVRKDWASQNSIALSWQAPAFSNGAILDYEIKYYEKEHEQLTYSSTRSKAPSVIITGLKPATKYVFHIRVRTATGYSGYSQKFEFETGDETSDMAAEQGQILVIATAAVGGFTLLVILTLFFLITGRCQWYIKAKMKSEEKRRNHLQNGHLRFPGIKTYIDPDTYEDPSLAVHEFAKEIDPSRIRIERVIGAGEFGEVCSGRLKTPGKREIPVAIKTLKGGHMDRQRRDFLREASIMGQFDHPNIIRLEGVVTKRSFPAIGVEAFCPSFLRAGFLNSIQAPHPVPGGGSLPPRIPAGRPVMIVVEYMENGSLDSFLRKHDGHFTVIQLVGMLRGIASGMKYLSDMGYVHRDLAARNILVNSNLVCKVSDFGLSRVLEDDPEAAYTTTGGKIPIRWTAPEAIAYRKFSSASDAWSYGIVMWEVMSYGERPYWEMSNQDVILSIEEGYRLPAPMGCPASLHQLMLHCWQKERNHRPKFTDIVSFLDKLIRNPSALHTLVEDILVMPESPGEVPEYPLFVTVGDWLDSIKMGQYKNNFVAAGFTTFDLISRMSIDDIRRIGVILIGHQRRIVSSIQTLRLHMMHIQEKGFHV

[2] = molecular target: kinases (KINOMEscan panel) (Homo sapiens, UniProt P09769); conditions: FGR; NEW KINOMEscan
[3] = molecular target: T2, kinases (KINOMEscan panel) (Homo sapiens, UniProt Q92630); conditions: DYRK2; NEW KINOMEscan
T2 sequence (Q92630 1-601): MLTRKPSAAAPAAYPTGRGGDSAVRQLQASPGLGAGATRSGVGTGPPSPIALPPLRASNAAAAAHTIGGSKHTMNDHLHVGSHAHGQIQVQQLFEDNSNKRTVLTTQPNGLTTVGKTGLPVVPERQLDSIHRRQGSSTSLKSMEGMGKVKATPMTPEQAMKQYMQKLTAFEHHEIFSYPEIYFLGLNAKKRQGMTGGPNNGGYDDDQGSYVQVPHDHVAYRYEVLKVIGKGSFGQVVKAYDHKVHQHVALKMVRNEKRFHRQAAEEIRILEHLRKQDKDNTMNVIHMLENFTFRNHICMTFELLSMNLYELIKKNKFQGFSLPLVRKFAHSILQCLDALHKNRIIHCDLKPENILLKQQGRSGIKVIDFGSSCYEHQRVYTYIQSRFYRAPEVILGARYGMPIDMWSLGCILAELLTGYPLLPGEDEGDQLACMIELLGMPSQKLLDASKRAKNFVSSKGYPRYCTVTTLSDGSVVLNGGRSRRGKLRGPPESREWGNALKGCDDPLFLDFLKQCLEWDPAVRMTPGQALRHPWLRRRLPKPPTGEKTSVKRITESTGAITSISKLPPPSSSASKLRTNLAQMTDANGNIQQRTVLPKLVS

[4] = molecular target: kinases (KINOMEscan panel) (Homo sapiens, UniProt P49759); conditions: kinase CLK1; NEW KINOMEscan
[5] = molecular target: T3, kinases (KINOMEscan panel) (Homo sapiens, UniProt Q02156); conditions: kinase PRKCE; NEW KINOMEscan
T3 sequence (Q02156 1-737): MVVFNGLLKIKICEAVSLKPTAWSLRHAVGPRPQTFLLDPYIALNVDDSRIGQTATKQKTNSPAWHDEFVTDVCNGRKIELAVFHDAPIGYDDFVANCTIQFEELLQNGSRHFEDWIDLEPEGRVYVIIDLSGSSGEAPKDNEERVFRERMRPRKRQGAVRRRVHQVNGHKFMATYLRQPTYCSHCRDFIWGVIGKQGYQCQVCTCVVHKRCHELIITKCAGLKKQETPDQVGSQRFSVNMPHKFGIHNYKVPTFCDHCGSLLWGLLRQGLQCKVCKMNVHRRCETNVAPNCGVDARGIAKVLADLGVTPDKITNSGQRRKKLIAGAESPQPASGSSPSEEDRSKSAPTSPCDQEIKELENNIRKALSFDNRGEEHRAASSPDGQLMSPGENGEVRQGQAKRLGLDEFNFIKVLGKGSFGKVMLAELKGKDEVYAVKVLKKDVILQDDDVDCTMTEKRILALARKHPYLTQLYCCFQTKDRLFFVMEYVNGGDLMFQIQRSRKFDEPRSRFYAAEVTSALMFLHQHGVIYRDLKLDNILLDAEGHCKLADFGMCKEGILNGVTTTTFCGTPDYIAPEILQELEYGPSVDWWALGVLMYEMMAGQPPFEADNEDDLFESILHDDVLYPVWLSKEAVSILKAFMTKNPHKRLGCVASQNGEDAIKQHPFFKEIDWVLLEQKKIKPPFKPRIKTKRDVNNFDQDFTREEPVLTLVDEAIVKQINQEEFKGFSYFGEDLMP

kinases (KINOMEscan panel) (Homo sapiens, UniProt P49759), sequence (P49759 whole entry): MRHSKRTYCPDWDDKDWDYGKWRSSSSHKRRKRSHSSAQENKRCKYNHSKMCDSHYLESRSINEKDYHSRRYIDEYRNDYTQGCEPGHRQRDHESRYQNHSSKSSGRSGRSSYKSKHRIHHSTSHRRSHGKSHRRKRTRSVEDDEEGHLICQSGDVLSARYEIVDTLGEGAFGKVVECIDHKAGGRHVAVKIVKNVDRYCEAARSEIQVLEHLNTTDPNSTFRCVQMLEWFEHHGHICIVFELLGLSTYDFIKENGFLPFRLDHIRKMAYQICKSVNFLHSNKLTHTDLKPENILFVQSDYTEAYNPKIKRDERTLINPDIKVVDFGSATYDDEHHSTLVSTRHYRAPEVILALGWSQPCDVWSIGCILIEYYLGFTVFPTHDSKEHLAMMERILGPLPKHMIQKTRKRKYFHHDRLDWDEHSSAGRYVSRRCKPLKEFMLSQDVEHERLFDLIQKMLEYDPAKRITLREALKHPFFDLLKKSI
kinases (KINOMEscan panel) (Homo sapiens, UniProt P09769), sequence (P09769 whole entry): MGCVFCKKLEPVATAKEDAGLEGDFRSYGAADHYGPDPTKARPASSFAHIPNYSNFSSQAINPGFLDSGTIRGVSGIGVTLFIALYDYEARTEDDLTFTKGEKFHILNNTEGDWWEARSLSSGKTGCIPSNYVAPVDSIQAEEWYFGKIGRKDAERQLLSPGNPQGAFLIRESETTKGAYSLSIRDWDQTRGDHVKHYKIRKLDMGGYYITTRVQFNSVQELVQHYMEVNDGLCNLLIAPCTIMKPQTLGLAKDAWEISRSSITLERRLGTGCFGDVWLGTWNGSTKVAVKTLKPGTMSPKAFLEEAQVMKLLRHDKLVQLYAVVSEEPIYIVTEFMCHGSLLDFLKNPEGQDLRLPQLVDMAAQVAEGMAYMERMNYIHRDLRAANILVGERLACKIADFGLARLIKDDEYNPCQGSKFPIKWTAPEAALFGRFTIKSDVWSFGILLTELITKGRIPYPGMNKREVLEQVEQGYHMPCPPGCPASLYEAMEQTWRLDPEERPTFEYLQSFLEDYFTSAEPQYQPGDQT

Row | SMILES | KINOMEscan EPHA6 [1] | KINOMEscan FGR [2] | KINOMEscan DYRK2 [3] | KINOMEscan CLK1 [4] | KINOMEscan PRKCE [5]
1 | Cc1cccc(-c2nc(Nc3ccc4nn(C)cc4c3)c3ccccc3n2)n1 [NK167] | 0 | 0 | 0 | 0 | 0
2 | Cc1cccc(-c2nc(N(C)c3ccc4ncsc4c3)c3ccccc3n2)n1 [NK-161] | 5 | 0 | 12 | 2 | 7
